From patent publication US11377441B2, “Covalent inhibitors of KRAS” (Araxes Pharma LLC, priority 2017, dated 2022) come the findings set out here.

The target of this assay is T1, KRAS G12C 1-169, his-tagged protein, GDP-loaded (Homo sapiens, UniProt P01116, G12C).
T1 construct: KRAS G12C 1-169, his-tagged protein, GDP-loaded
The assay can be described thus: Biochemical assay: covalent modification of KRAS G12C measured by mass spectrometry (RapidFire/TOF or Q-Exactive). Format: binding. The following applies: covalent binding to (modification of) KRAS G12C after a ten minute incubation period. The method in brief: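 GDP-loaded KRAS G12C 1-169 (his-tagged) at 2 μM or 0.5 μM in 20 mM Hepes, 150 mM NaCl, 1 mM MgCl2, incubated with compound at 100, 30 or 10 μM at room temperature for 10 min, 30 min, 2 h or 24 h, then quenched with formic acid. Intact-protein LC-MS, deconvolved; percent modification from modified versus unmodified protein.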

As to `C=CC(=O)N1C[C@H](C)N(c2nc(N3CC(N(C)C)C3)nc3c(F)c(-c4c(C)ccc5[nH]c(=O)[nH]c45)c(Cl)cc23)C[C@H]1C` [Compound 82, 4-(4-((2S,5R)-4-acryloyl-2,5-dimethylpiperazin-1-yl)-6-chloro-2-(3-(dimethylamino)azetidin-1-yl)-8-fluoroquinazolin-7-yl)-5-methyl-1H-benzo[d]imidazol-2(3H)-one], the Binding % entry was “+++ (+++ indicates binding activity greater than 80%)”.
Consider `C=CC(=O)N1C[C@H](C)N(c2nc(OCCN3CCC(F)(F)C3)nc3c(F)c(-c4c(C)ccc5onc(N)c45)c(Cl)cc23)C[C@H]1C` [Compound 85, 1-((2R,5S)-4-(7-(3-amino-5-methylbenzo[d]isoxazol-4-yl)-6-chloro-2-(2-(3,3-difluoropyrrolidin-1-yl)ethoxy)-8-fluoroquinazolin-4-yl)-2,5-dimethylpiperazin-1-yl)prop-2-en-1-one], for which the Binding % result is “+++ (+++ indicates binding activity greater than 80%)”.
Take `C=CC(=O)N1C[C@H](C)N(c2nc(N3CC(N(C)C)C3)nc3c(F)c(-c4c(C)ccc5nn[nH]c45)c(Cl)cc23)C[C@H]1C` [Compound 86, 1-((2R,5S)-4-(6-chloro-2-(3-(dimethylamino)azetidin-1-yl)-8-fluoro-7-(6-methyl-1H-benzo[d][1,2,3]triazol-7-yl)quinazolin-4-yl)-2,5-dimethylpiperazin-1-yl)prop-2-en-1-one]: the Binding % result was “+ (+ indicates binding activity greater than 0% and up to 50%)”.
Take `C=CC(=O)N1C[C@H](C)N(c2nc(NCCc3ncccn3)nc3c(F)c(-c4c(C)ccc5onc(N)c45)c(Cl)cc23)C[C@H]1C` [Compound 91, 1-((2R,5S)-4-(7-(3-amino-5-methylbenzo[d]isoxazol-4-yl)-6-chloro-8-fluoro-2-(2-(pyrimidin-2-yl)ethylamino)quinazo-lin-4-yl)-2,5-dimethylpiperazin-1-yl)prop-2-en-1-one]: the Binding % result is given as “+++ (+++ indicates binding activity greater than 80%)”.
As for `C=CC(=O)N1C[C@H](C)N(c2nc(NCCN3CCOCC3)nc3c(F)c(-c4c(C)ccc5onc(N)c45)c(Cl)cc23)C[C@H]1C` [Compound 92, 1-((2R,5S)-4-(7-(3-amino-5-methylbenzo[d]isoxazol-4-yl)-6-chloro-8-fluoro-2-(2-morpholinoethylamino)quinazolin-4-yl)-2,5-dimethylpiperazin-1-yl)prop-2-en-1-one], the Binding % entry is “++ (++ indicates binding activity from 50 to 80%)”.
With `C=CC(=O)N1C[C@H](C)N(c2nc(NCCC(=O)N3CCCC3)nc3c(F)c(-c4c(C)ccc5onc(N)c45)c(Cl)cc23)C[C@H]1C` [Compound 93, 1-((2R,5S)-4-(7-(3-amino-5-methylbenzo[d]isoxazol-4-yl)-6-chloro-8-fluoro-2-(3-oxo-3-(pyrrolidin-1-yl)propylamino)quinazo-lin-4-yl)-2,5-dimethylpiperazin-1-yl)prop-2-en-1-one], the Binding % result is on record as “++ (++ indicates binding activity from 50 to 80%)”.
In the case of `C=CC(=O)N1C[C@H](C)N(c2nc(N3CC(N(C)C)C3)nc3c(F)c(-c4c(C)ccc5[nH]nnc45)c(Cl)cc23)C[C@H]1C` [Compound 94, 1-((2R,5S)-4-(6-chloro-2-(3-(dimethylamino)azetidin-1-yl)-8-fluoro-7-(5-methyl-1H-benzo[d][1,2,3]triazol-4-yl)quinazolin-4-yl)-2,5-dimethylpiperazin-1-yl)prop-2-en-1-one] it was “++ (++ indicates binding activity from 50 to 80%)”; in that of `C=CC(=O)N1C[C@H](C)N(c2nc(N3CC(N(C)C)C3)nc3c(F)c(-c4c(C)ccc5onc(N)c45)c(Cl)cc23)C[C@H]1C` [Compound 95, 1-((2R,5S)-4-((R)-7-(3-amino-5-methylbenzo[d]isoxazol-4-yl)-6-chloro-2-(3-(dimethylamino)azetidin-1-yl)-8-fluoroquinazolin-4-yl)-2,5-dimethylpiperazin-1-yl)prop-2-en-1-one], “+++ (+++ indicates binding activity greater than 80%)”; in that of `C=CC(=O)N1C[C@H](C)N(c2nc(N3CC(N(C)C)C3)nc3c(F)c(-c4c(C)ccc5onc(Cl)c45)c(Cl)cc23)C[C@H]1C` [Compound 99, 1-((2R,5S)-4-(6-chloro-7-(3-chloro-5-methylbenzo[d]isoxazol-4-yl)-2-(3-(dimethylamino)azetidin-1-yl)-8-fluoroquinazolin-4-yl)-2,5-dimethylpiperazin-1-yl)prop-2-en-1-one], “+ (+ indicates binding activity greater than 0% and up to 50%)”.
`C=CC(=O)N1C[C@H](C)N(c2nc(OCCN3CC[C@@H](OC)C3)nc3c(F)c(-c4c(C)ccc5[nH]nc(N)c45)c(Cl)cc23)C[C@H]1C` [Compound 100, 1-((2R,5S)-4-(7-(3-amino-5-methyl-1H-indazol-4-yl)-6-chloro-8-fluoro-2-(2-((R)-3-methoxypyrrolidin-1-yl)ethoxy)quinazolin-4-yl)-2,5-dimethylpiperazin-1-yl)prop-2-en-1-one]: the Binding % entry was “+++ (+++ indicates binding activity greater than 80%)”.
`C=CC(=O)N1C[C@H](C)N(c2nc(N3CC([N+](C)(C)C)C3)nc3c(F)c(-c4c(C)ccc5cnn(C)c45)c(Cl)cc23)C[C@H]1C` [Compound 106, 1-((R)-4-((2S,5R)-4-acryloyl-2,5-dimethylpiperazin-1-yl)-6-chloro-7-(1,6-dimethyl-1H-indazol-7-yl)-8-fluoroquinazolin-2-yl)-N,N,N-trimethylazetidin-3-aminium]: the Binding % result is reported as “+++ (+++ indicates binding activity greater than 80%)”.
In the case of `C=CC(=O)N1C[C@H](C)N(c2nc(N3CC(N(C)C)C3)nc3c(F)c(-c4c(C)ccc5[nH]nc(C)c45)c(Cl)cc23)C[C@H]1C` [Compound 107, 1-((2R,5S)-4-(6-chloro-7-(3,5-dimethyl-1H-indazol-4-yl)-2-(3-(dimethylamino)azetidin-1-yl)-8-fluoroquinazolin-4-yl)-2,5-dimethylpiperazin-1-yl)prop-2-en-1-one], the Binding % result was “+ (+ indicates binding activity greater than 0% and up to 50%)”.
For `C=CC(=O)N1C[C@H](C)N(c2nc(OCCN3CC[C@@H](F)C3)nc3c(F)c(-c4c(C)ccc5[nH]nc(N)c45)c(Cl)cc23)C[C@H]1C` [Compound 108, 1-((2R,5S)-4-(7-(3-amino-5-methyl-1H-indazol-4-yl)-6-chloro-8-fluoro-2-(2-((R)-3-fluoropyrrolidin-1-yl)ethoxy)quinazolin-4-yl)-2,5-dimethylpiperazin-1-yl)prop-2-en-1-one] the value was “+++ (+++ indicates binding activity greater than 80%)”.
As to `C=CC(=O)N1C[C@H](C)N(c2nc(OCCN3CC[C@H](F)C3)nc3c(F)c(-c4c(C)ccc5[nH]nc(N)c45)c(Cl)cc23)C[C@H]1C` [Compound 109, 1-((2R,5S)-4-(7-(3-amino-5-methyl-1H-indazol-4-yl)-6-chloro-8-fluoro-2-(2-((S)-3-fluoropyrrolidin-1-yl)ethoxy)quinazolin-4-yl)-2,5-dimethylpiperazin-1-yl)prop-2-en-1-one], the Binding % result is recorded as “+++ (+++ indicates binding activity greater than 80%)”.
On to `C=CC(=O)N1C[C@H](C)N(c2nc(OCCN3CCCC(F)(F)C3)nc3c(F)c(-c4c(C)ccc5[nH]nc(N)c45)c(Cl)cc23)C[C@H]1C` [Compound 114, 1-((2R,5S)-4-(7-(3-amino-5-methyl-1H-indazol-4-yl)-6-chloro-2-(2-(3,3-difluoropiperidin-1-yl)ethoxy)-8-fluoroquinazolin-4-yl)-2,5-dimethylpiperazin-1-yl)prop-2-en-1-one], for which the Binding % entry is “+++ (+++ indicates binding activity greater than 80%)”.
On to `C=CC(=O)N1C[C@H](C)N(c2nc(N3CC(N(C)C)C3)nc3c(F)c(-c4c(C)ccc5[nH]nc(C(F)(F)F)c45)c(Cl)cc23)C[C@H]1C` [Compound 115, 1-((2R,5S)-4-(6-chloro-2-(3-(dimethylamino)azetidin-1-yl)-8-fluoro-7-(5-methyl-3-(trifluoromethyl)-1H-indazol-4-yl)quinazolin-4-yl)-2,5-dimethylpiperazin-1-yl)prop-2-en-1-one], for which the Binding % result is “+ (+ indicates binding activity greater than 0% and up to 50%)”.
For `C=CC(=O)N1C[C@H](C)N(c2nc(OCCN3CCC(F)(F)CC3)nc3c(F)c(-c4c(C)ccc5[nH]nc(N)c45)c(Cl)cc23)C[C@H]1C` [Compound 118, 1-((2R,5S)-4-(7-(3-amino-5-methyl-1H-indazol-4-yl)-6-chloro-2-(2-(4,4-difluoropiperidin-1-yl)ethoxy)-8-fluoroquinazolin-4-yl)-2,5-dimethylpiperazin-1-yl)prop-2-en-1-one], the Binding % result is given as “+++ (+++ indicates binding activity greater than 80%)”.
Regarding `C=CC(=O)N1C[C@H](C)N(c2nc(N3CC(N(C)C)C3)nc3c(F)c(-c4c(C)ccc5[nH]nc(NC(C)=O)c45)c(Cl)cc23)C[C@H]1C` [Compound 119, N-(4-(4-((2S,5R)-4-acryloyl-2,5-dimethylpiperazin-1-yl)-6-chloro-2-(3-(dimethylamino)azetidin-1-yl)-8-fluoroquinazolin-7-yl)-5-methyl-1H-indazol-3-yl)acetamide], the Binding % result was “+ (+ indicates binding activity greater than 0% and up to 50%)”.
As for `C=CC(=O)N1C[C@H](C)N(c2nc(N3CC(N(C)C)C3)nc3c(F)c(-c4c(C)ccc5cnn(C)c45)c(Cl)cc23)C[C@H]1C` [Compound 120, 1-((2R,5S)-4-(6-chloro-7-(1,6-dimethyl-1H-indazol-7-yl)-2-(3-(dimethylamino)azetidin-1-yl)-8-fluoroquinazolin-4-yl)-2,5-dimethylpiperazin-1-yl)prop-2-en-1-one], the Binding % entry was “++ (++ indicates binding activity from 50 to 80%)”.
